Measurements as given in US20220226260A1, “APPLICATION OF HONOKIOL AND MAGNOLOL IN PREPARATION OF MCR-1 ENZYME INHIBITOR” (priority 2019, published 2022).
Like-named read-outs stand apart in the source and are kept apart here.

Columns and labels:
[1] = test system: MCR-1 positive Escherichia coli (E. coli DZ2-12R); experiment: Chessboard MIC test, MCR-1 positive E. coli; type: cell-based; conditions: for MIC: Escherichia coli; for antibacterial effect alone: summary for the strains of Tables 1 and 2; for reduction of the MIC value of polymyxin: combination with polymyxin, MCR-1 positive Escherichia coli
Procedure: (§1) The antibacterial activities of honokiol, magnolol, polymyxin and their combination against MCR-1 producing Escherichia coli (also referred to as MCR-1 positive Escherichia coli) and Klebsiella pneumoniae are tested by chessboard method in 96-well sterile microplates, the MIC values are determined, and the fractional inhibitory concentration (FIC) indexes are calculated. Specifically, FIC=MIC (polymyxin combined)/MIC (polymyxin alone)+MIC (honokiol/magnolol combined)/MIC (honokiol/magnolol alone).

[2] = test system: MCR-1 positive Klebsiella pneumoniae (K. pneumoniae ZJ02); experiment: Chessboard MIC test, MCR-1 positive K. pneumoniae; type: cell-based; conditions: for MIC: Klebsiella pneumoniae; for reduction of the MIC value of polymyxin: combination with polymyxin, MCR-1 positive Klebsiella pneumoniae
Procedure: as §1

[3] = test system: MCR-1 engineering bacteria E. coli BL21(DE3) (pET28a-mcr-1); experiment: Chessboard MIC test, MCR-1 engineering bacteria; type: cell-based, Escherichia coli; conditions: for MIC: Escherichia coli, read-out: MIC alone; for synergistic effect with polymyxin: combination with polymyxin, strain expressing MCR-1; for FIC: combined with polymyxin B
Procedure: as §1

[4] = test system: E. coli BL21(DE3) (pET28a); experiment: Chessboard MIC test, engineering strain not expressing MCR-1; type: cell-based, Escherichia coli; conditions: for MIC: Escherichia coli, read-out: MIC alone; for synergistic effect with polymyxin: combination with polymyxin, strain that does not express MCR-1; for FIC: combined with polymyxin B
[5] = test system: MCR-1 positive Escherichia coli isolate; experiment: Time-kill curve test; type: cell-based; conditions: 1×10^5 CFUs/mL
Procedure: An overnight culture of MCR-1 positive Escherichia coli isolate is taken and adjusted to 1×10^7 colony forming units per milliliter (CFUs/mL) for use. Sterile test tubes are taken and divided into 4 groups (including blank control group, 2 μg/mL polymyxin group B group, 16 μg/mL honokiol or 32 μg/mL magnolol group, and 16 μg/mL honokiol or 32 μg/mL magnolol combined with 2 μg/mL polymyxin B group), each group is marked for 1, 3, 5 and 7 hours. 1 mL of autoclaved Lysogeny broth (LB) medium is added into each of the test tubes, and then 10 microliters (μL) of adjusted bacterial solution are added into each of the test tubes so that the concentration of bacterial solution in each of the test tubes is 1×10^5 CFUs/mL. Among them, 2 μg/mL polymyxin group B group, 16 μg/mL honokiol or 32 μg/mL magnolol group, and 16 μg/mL honokiol or 32 μg/mL magnolol combined with 2 μg/mL polymyxin B group are added with the corresponding amount of antibiotics and inhibitors respectively. Immediately after mixing, the bacterial solution of the antibiotic-free control group is coated and counted as the CFU at 0 H. After that, the bacterial solution in the corresponding test tube is taken every 1, 3, 5 and 7 hours, and the plate is coated for counting, and the time-kill curves are drawn, as shown in FIG. 1 and FIG. 2.

[6] = test system: MCR-1 positive Klebsiella pneumoniae; experiment: Colony colonization experiment of mouse thigh muscle infection; type: in vivo; conditions: BALB/C mice, subcutaneous, every 8 hours for three times, 36 hours
Procedure: After BALB/C mice (female, about 20 […] (g)) are restrained, MCR-1 positive Klebsiella pneumoniae suspension (2×10^7 CFUs) is injected through the inner thigh to establish a mouse thigh muscle infection model.
After intramuscular injection of MCR-1 positive Klebsiella pneumoniae into the inner thigh of mice, 5 […] (mg/kg) (50 μL) of polymyxin B dissolved in sterile ultra-pure water (dd H2O), 50 mg/kg (50 μL) honokiol or magnolol dissolved in dimethyl sulfoxide (DMSO) solution, and 50 mg/kg of honokiol or magnolol combined with polymyxin B (5 mg/kg) are injected subcutaneously, while the positive control group is subcutaneously injected with 50 μL DMSO blank solvent. All groups of mice are administered subcutaneously every 8 hours for three times. After 36 hours of administration, the mice are sacrificed, and the thigh muscles are weighed, homogenized, diluted and counted.

[7] = combined with polymyxin B, E. coli DZ2-12R
[8] = combined with polymyxin B, K. pneumoniae ZJ02
[9] = E. coli BL21(DE3) (pET28a-mcr-1)
[10] = 50 mg/kg combined with polymyxin B (5 mg/kg)
[11] = alone (honokiol or magnolol 50 mg/kg, polymyxin B 5 mg/kg)

Compound	MIC ([1]; read-out: MIC alone) [µg/mL]	antibacterial effect alone ([1]; alone)	reduction of the MIC value of polymyxin [1] [fold]	FIC [1, 7]	MIC ([2]; read-out: MIC alone) [µg/mL]	reduction of the MIC value of polymyxin [2] [fold]	FIC [2, 8]	MIC [3] [µg/mL]	synergistic effect with polymyxin [3]	FIC [3, 9]	MIC [4] [µg/mL]	synergistic effect with polymyxin [4]	FIC ([4]; E. coli BL21(DE3) (pET28a))	number of bacterial colonization in mouse thigh muscle [6, 10]	number of bacterial colonization in mouse thigh muscle [6, 11]	other results
C=CCc1ccc(O)c(-c2ccc(O)c(CC=C)c2)c1 [Honokiol, honokiol]	> 512	no antibacterial effect	8	0.1875	> 512	16	0.125	> 512	obvious synergistic effect	0.125	> 512	does not have any synergistic effect	0.5625	significantly reduced	no significant effect	MIC ([1]; combined with polymyxin B, E. coli DZ2-12R, read-out: MIC co-application (honokiol/magnolol)): 32 µg/mL; MIC ([2]; combined with polymyxin B, K. pneumoniae ZJ02, read-out: MIC co-application (honokiol/magnolol)): 32 µg/mL; time to completely kill MCR-1 positive Escherichia coli ([5]; 16 μg/mL honokiol combined with 2 μg/mL polymyxin B): ≤ 1 h
C=CCc1ccc(O)c(-c2cc(CC=C)ccc2O)c1 [Magnolol, magnolol]	> 512	no antibacterial effect	4	0.3125	> 512	4	0.3125	> 512	obvious synergistic effect	0.1875	> 512	does not have any synergistic effect	1.0625	significantly reduced	no significant effect	time to completely kill MCR-1 positive Escherichia coli ([5]; 32 μg/mL magnolol combined with 2 μg/mL polymyxin B): ≤ 3 h
Polymyxin B [reference compound]															no significant effect	MIC alone ([1]; alone, E. coli DZ2-12R): 8 µg/mL; MIC Polymyxin B co-application ([1]; polymyxin B combined with honokiol, E. coli DZ2-12R): 1 µg/mL; MIC Polymyxin B co-application ([1]; polymyxin B combined with magnolol, E. coli DZ2-12R): 2 µg/mL; MIC alone ([2]; alone, K. pneumoniae ZJ02): 32 µg/mL; MIC Polymyxin B co-application ([2]; polymyxin B combined with honokiol, K. pneumoniae ZJ02): 2 µg/mL; MIC Polymyxin B co-application ([2]; polymyxin B combined with magnolol, K. pneumoniae ZJ02): 8 µg/mL; MIC alone ([3]; alone, E. coli BL21(DE3) (pET28a-mcr-1)): 8 µg/mL; MIC Polymyxin B co-application ([3]; polymyxin B combined with honokiol, E. coli BL21(DE3) (pET28a-mcr-1)): 0.5 µg/mL; MIC Polymyxin B co-application ([3]; polymyxin B combined with magnolol, E. coli BL21(DE3) (pET28a-mcr-1)): 1 µg/mL; MIC alone ([4]; alone, E. coli BL21(DE3) (pET28a)): 1 µg/mL; MIC Polymyxin B co-application ([4]; polymyxin B combined with honokiol, E. coli BL21(DE3) (pET28a)): 0.5 µg/mL; MIC Polymyxin B co-application ([4]; polymyxin B combined with magnolol, E. coli BL21(DE3) (pET28a)): 1 µg/mL
